ChEMBL document CHEMBL4038351, “Structure-Guided Development of Covalent and Mutant-Selective Pyrazolopyrimidines to Target T790M Drug Resistance in Epidermal Growth Factor Receptor” (J Med Chem, 2017)
≈ marks a conversion by molar mass, not a printed value. Calls of active or inactive are those of the source. No cut-off for these calls is given here.

Columns and labels:
A549 = assay: Antiproliferative activity against human A549 cells harboring KRAS-G12S mutant at 30 uM incubated for 96 hrs measured on day 5 by CellTiterGlo assay; type: cell-based; details: a549, 96 h
A-431 [1] = assay: Antiproliferative activity against human A431 cells expressing wild type EGFR at 30 uM incubated for 96 hrs measured on day 5 by CellTiterGlo assay; type: cell-based; details: a-431, 96 h
[2] = biological target: Epidermal growth factor receptor (Homo sapiens, UniProt P00533)
NCI-H1975 [3] = assay: Antiproliferative activity against human NCI-H1975 cells harboring EGFR-L858R/T790M double mutant at 30 uM incubated for 96 hrs measured on day 5 by CellTiterGlo assay; type: functional, cell-based
[4] = biological target: Epidermal growth factor receptor (Homo sapiens, UniProt P00533, L858R/T790M)
[5] = biological target: Epidermal growth factor receptor (Homo sapiens, UniProt P00533, L858R)
HCC827 [6] = assay: cells; type: functional, cell-based; details: Homo sapiens
Description: Antiproliferative activity against human HCC827 cells harboring EGFR-delE746_A750 mutant incubated for 96 hrs measured on day 5 by CellTiterGlo assay

[7] = Apparent permeability across basolateral to apical side in human Caco2 cells at 5 uM incubated for 2 hrs; type: ADME, cell-based, Caco-2; details: caco-2, 2 h, 5 µM
[8] = Kinetic solubility in Hepes buffer at 500 uM at pH 7.4 after 90 mins; type: physicochemical; details: read-out: Kinetic_solubility
[9] = Metabolic stability in human plasma at 5 uM incubated for 1 hr by LC-MS method; type: ADME, cell-free; details: read-out: Stability
A-431 [10] = assay: cells; type: ADME, cell-based; details: Homo sapiens
Description: Antiproliferative activity against human A431 cells expressing wild type EGFR incubated for 96 hrs measured on day 5 by CellTiterGlo assay

[11] = Metabolic stability in mouse plasma at 5 uM incubated for 1 hr by LC-MS method; type: ADME, cell-free; details: read-out: Stability
[12] = Permeability of the compound at 500 uM incubated for 20 hrs by PAMPA; type: physicochemical
[13] = Fraction unbound in mouse 100% plasma at 5 uM incubated for 6 hrs by LC-MS method; type: ADME, cell-free
NCI-H1975 [14] = assay: cells; type: functional, cell-based; details: Homo sapiens
[15] = Apparent permeability across apical to basolateral side in human Caco2 cells at 5 uM incubated for 2 hrs; type: ADME, cell-based, Caco-2; details: caco-2, 2 h, 5 µM
HCC827 [16] = assay: Antiproliferative activity against human HCC827 cells harboring EGFR-delE746_A750 mutant at 30 uM incubated for 96 hrs measured on day 5 by CellTiterGlo assay; type: functional, cell-based
in vitro [17] = details: human, liver microsomes
in vitro [18] = details: mouse, liver microsomes
[19] = system: Epidermal growth factor receptor (Homo sapiens), P00533 [L858R,T790M]; assay: Covalent binding affinity to human recombinant GST-tagged EGFR L858R/T790M double mutant expressed in baculovirus expression system by mass spectrometry

SMILES	Activity (A549)	Activity (A-431 [1])	IC50 [2] [nM]	Activity (NCI-H1975 [3])	IC50 [4] [nM]	IC50 [5] [nM]	EC50 (HCC827 [6]) [nM]	Papp [7] [×10⁻⁸ cm/s]	solubility kinetic at 1.5 h, 500 µM [8] [µM]	remaining at 1 h, 5 µM [9] [%]	EC50 (A-431 [10]) [nM]	remaining at 1 h, 5 µM [11] [%]	permeability [12] [%]	fraction unbound at 6 h, 5 µM [13]	EC50 (NCI-H1975 [14]) [nM]	Papp [15] [×10⁻⁸ cm/s]	Activity (HCC827 [16])	microsomal CLint at 50 min, 3 µM (in vitro [17]) [µL/min/mg]	microsomal CLint at 50 min, 3 µM (in vitro [18]) [µL/min/mg]	Activity [19]
CCC(=O)N1CCC[C@@H](n2nc(-c3cccc(F)c3)c3c(N)ncnc32)C1	Non-Toxic	Non-Toxic	> 10000	inactive	> 10000	3400	22300	–	–	–	–	–	–	–	–	–	–	–	–	–
C=CC(=O)N1CCC[C@@H](n2nc(-c3ccc(Oc4ccccc4)cc3)c3c(N)ncnc32)C1 [IBRUTINIB]	Non-Toxic	–	–	–	–	–	450	0.9	57 (≈ 25.1 µg/mL)	80	2380	96	38	0.01	640	40	–	–	–	–
CCC(=O)N1CCC[C@@H](n2nc(-c3ccccc3)c3c(N)ncnc32)C1	Non-Toxic	Non-Toxic	7300	inactive	> 10000	4700	–	–	–	–	–	–	–	–	–	–	inactive	–	–	–
C=CC(=O)N1CCC[C@@H](n2nc(-c3cccc4ccccc34)c3c(N)ncnc32)C1	Non-Toxic	–	60	–	2	–	500	–	38 (≈ 15.1 µg/mL)	100	29400	90	82	0.15	490	–	–	770	2770	Active
